# Reference: patent US20150057325A1, “COMPOUNDS CAPABLE OF MODULATING/PRESERVING ENDOTHELIAL INTEGRITY FOR USE IN PREVENTION OR TREATMENT OF ACUTE TRAUMATIC COAGULOPATHY AND RESUSCITATED CARDIAC ARREST” (priority 2012, published 2015)
# How the values were obtained:
# [1] = in vivo; cited from earlier work
# [2] = human, in vivo
# Procedure: Ninety-four critically ill patients admitted to the intensive care unit (ICU) underwent haemofiltration with or without concomitant Flolan (prostacycline) treatment. None of the patients were suffering from Acute Traumatic Coagulopathy nor from sequelae to cardiac arrest. Flolan was administered in a low dose in the filters to prevent these from clotting and consequently there was only a minor spill over of Flolan to the systemic circulation. The patients were retrospectively reviewed.
# However, patients in the flolan group were more severely ill as evaluated by a lower platelet count at start of hemofiltration, a higher frequency of severe thrombocytopenia, a higher frequency of DIC diagnoses, a higher maximum SOFA score and a higher SOFA score at hemofiltration initiation as compared to the patients receiving non-flolan.
# [3] = Blood pressure and heart rate in healthy volunteers during intravenous flolan infusion; assay type: in vivo, human; conditions: 4 ng/kg/min i.v. for 2 h, any time point
# Procedure: (§1) Six healthy volunteers were administered flolan (Prostacycline) intravenously at a dose of 4 ng/kg/min for 2 h. Blood samples for whole blood viscoelastical assay (Thrombelastography [TEG]) and whole blood platelet aggregation (Multiplate) were obtained before infusion of Flolan, after 60 min infusion of Flolan and after 120 min infusion of Flolan.
# whole blood = assay: Whole blood viscoelastical assay (Thrombelastography, TEG) in healthy volunteers infused with flolan; assay type: in vivo, human; conditions: 6 healthy volunteers, 4 ng/kg/min i.v., after 60 and 120 min infusion; kaolin
# Procedure: Six healthy volunteers were administered flolan (Prostacycline) intravenously at a dose of 4 ng/kg/min for 2 h. Blood samples for whole blood viscoelastical assay (Thrombelastography [TEG]) and whole blood platelet aggregation (Multiplate) were obtained before infusion of Flolan, after 60 min infusion of Flolan and after 120 min infusion of Flolan. With regard to the TEG assay this was performed as recommended by the manufacturer and 340 μl are mixed with 20 μl CaCl 0.2 M (final concentration 11.1 mM in the cup) and kaolin at 37° C. after which the haemostatic activity is recorded as depicted in FIG. 1.
# [4] = test system: whole blood platelet aggregation; assay: Whole blood impedance aggregometry (Multiplate) in healthy volunteers infused with flolan; assay type: in vivo, human; conditions: 6 healthy volunteers, 4 ng/kg/min i.v., after 60 and 120 min infusion
# Procedure: as §1
# Whole blood impedance aggregometry was analyzed by the Multiple Platelet function Analyzer (MultiPlate® analyzer). Analysis employing various platelet agonists: ASPItest (activation by arachidonic acid), COLtest (activation by collagen through the collagen receptor), TRAPtest (activation by TRAP-6 stimulates the thrombin receptor on the platelet surface and ADPtest (activation by ADP stimulates platelet activation by the ADP receptors).
# MultiPlate continuously records platelet aggregation. The increase of impedance by the attachment of platelets onto the Multiplate sensors is transformed to arbitrary aggregation units (AU) and plotted against time as depicted in FIG. 2.
# endothelium = assay: Plasma biomarkers (ELISA) of endothelial, glycocalyx, necrosis and anticoagulation status in healthy volunteers after Flolan infusion; assay type: in vivo, human; conditions: 8 healthy volunteers, 4 ng/kg/min i.v. for 2 h
# Procedure: Eight healthy volunteers were administered Flolan® (Prostacyclin) intravenously at a dose of 4 ng/kg/min for 2 h. Blood samples were analyzed for plasma biomarkers indicative of endothelial cell (thrombomodulin, PAI-1) and glycocalyx (syndecan-1) activation and/or damage, cellular necrosis (histone-complexed DNA fragments, HMGB1) and anticoagulation (protein C, antithrombin, TFPI) at the following time points: Before the infusion (0 h), immediately after ceasing the infusion (2 h) and then 4 h, 5 h, 6 h, 8 h and 24 h after starting the infusion. The concentration of the individual biomarkers in plasma was analyzed by commercially available ELISA kits according to the manufactures recommendations. Paired t-tests with p-values <0.05 were considered significant.
smiles,measurement,setting,value
"CCCCC[C@H](O)CC[C@@H]1[C@H]2Cc3cccc(OCC(=O)O)c3C[C@H]2C[C@H]1O [Treprostinil, treprostinil]",half time,[1],less than 4 hours
"CCCCC[C@H](O)/C=C/[C@@H]1[C@H]2C/C(=C/CCCC(=O)O)O[C@H]2C[C@H]1O [Flolan, epoprostenol sodium]",Platelet count (difference before vs. after haemofiltration),[2],+14
same,haemostatic competence as evaluated by transfusion requirements,[2],does not negatively influence
same,total transfusion requirements and specifically of FFP during hemofiltration,[2],increased
same,"blood pressure, change from baseline",[3],did not change
same,"heart rate, change from baseline",[3],did not change
same,"TEG values (R, Angle, MA), baseline vs. samples during infusion",whole blood,No significant difference
same,"Multiplate values (ASPI, COL, ADP, TRAP), baseline vs. samples during infusion",[4],no significant difference
same,cell necrosis biomarker HMGB1,endothelium,did not influence
same,cell necrosis biomarker histone-complexed DNA fragments,endothelium,did not influence
same,circulating level of PAI-1,endothelium,declined
same,circulating level of TFPI (affected or not),endothelium,did not
same,circulating level of antithrombin,endothelium,decreased
same,glycocalyx shedding (syndecan-1),endothelium,did not induce or influence
same,HMGB1 at 5 h,"endothelium; 5 h after starting infusion, p=0.056",tendency towards a reduction
same,circulating level of thrombomodulin,endothelium; effect continuing for several hours after ceasing infusion,marked decrease
same,circulating level of Protein C,endothelium; in the hours after ceasing infusion,decreased
same,half time,[1],0.5 to 3 min
"CC#CCC(C)[C@H](O)/C=C/[C@@H]1[C@H]2C/C(=C/CCCC(=O)O)C[C@H]2C[C@H]1O (some centres unmarked) [Iloprost, iloprost]",half time,[1],20 to 30 min
"CC#CCC(C)[C@H](O)/C=C/[C@@H]1[C@H]2c3cccc(CCCC(=O)O)c3O[C@H]2C[C@H]1O (mixture of isomers) [Beraprost, beraprost]",half time,[1],35 to 40 min
